Values of other authors in patent US20100120075A1, “Composition and a method for suppressing the luminescence intensity decline in a luciferin-luciferase reaction” (priority 2008, published 2010).

Tested on: Gaussia luciferase

For “polyoxyethylene octyl phenyl ether [Triton X-100]”, the “suppression of reaction time-dependent decline in luminescent intensity” value (shortened to “suppression”) is given as “suppressed”.
For “nonyl phenoxylpolyethoxylethanol [NP-40]”, the “suppression” value is given as “suppressed”.
In the case of `CCCCCCCCCCCCOS(=O)(=O)[O-].[Na+]` [sodium dodecyl sulfate], the “deactivation of the luciferase” value is listed as “deactivated the luciferase” and the “suppression” value is listed as “did not suppress the decline”.
